According to EP4692059A1, “CATIONIC LIPID HAVING DISULFIDE BOND” (Tohoku University, priority 2023, dated 2024):

Columns and labels:
liver [1] = assay: In vivo gene expression, luciferase luminescence in the liver after tail vein administration (Experimental Example 4); conditions: BALB/c mouse, mRNA 0.05 mg/kg
Protocol: LNP encapsulating mRNA that expresses luciferase (cationic lipid:DOPC:Chol:DMG-PEG2k = 52.5:7.5:40:1.5 (molar ratio)) was prepared by the method described in [Experimental Example 2], 1.
(§1) The prepared each mRNA-encapsulating LNP dispersion was administered from the tail vein of BALB/c mouse (male, 5-week-old). The dose of mRNA was set to 0.05 mg per 1 kg body weight of the mouse, and the dose of the mRNA-encapsulating LNP dispersion was set to 10 µL per 1 g body weight of the mouse. After 4.5 hr from the administration of the mRNA-encapsulating LNP dispersion, a PBS solution of D-luciferin potassium was administered into the abdominal cavity of the mouse. The dose of D-luciferin potassium was set to 3 mg per mouse, and the dose of the PBS solution of D-luciferin potassium was set to 200 µL per mouse. After 15 min from the administration of the PBS solution of D-luciferin potassium, the mouse was euthanized, and the liver was isolated. The luminescence in the liver was quantified using an in vivo imaging system (IVIS) with an exposure of 10 sec. The amount of luminescence in the liver was quantified by image analysis using Live Imaging software attached to IVIS. The amount of luminescence (photons/sec) was calculated from the acquired image and used as an index of gene expression activity. The cationic lipids used, the luminescence intensity in the liver, and the relative luminescence intensity (= luminescence intensity in the liver when cationic lipid of Example was used/luminescence intensity in the liver when cationic lipid of Comparative Example was used) are shown in Table 7-1 to Table 7-3. "E+0a" (a: integer) indicated in Table 7-1 to Table 7-3 means "10^a". For example, "3.94E+09" means "3.94×10^9". […]

[2] = Particle size, PdI and zeta potential of mRNA-encapsulating LNPs by dynamic light scattering (Experimental Example 2); assay type: physicochemical; conditions: mRNA-encapsulating LNP containing the cationic lipid; for zeta potential (mV): dispersion in PBS (Table 5-3); for PdI / particle size (nm): dispersion in PBS, dynamic light scattering (Table 5-3)
Protocol: An acidic buffer solution (total amount: 1080 µL) of nucleic acid was prepared by weighing 7.2 µg of mRNA solution (0.6 mg/mL) in a 5 mL tube and adding acidic malate buffer (20 mM, pH 3.0).
An acidic buffer solution of nucleic acid and an ethanol solution of lipid were each weighed in a syringe.
The particle size, PdI (Polydispersity Index), and zeta potential of the mRNA-encapsulating LNP prepared by the method of the above-mentioned 1 were measured by a dynamic light scattering method (Zetasizer Nano; Malvern).

mouse red blood cells = assay: Hemolysis activity (membrane fusion ability) at pH 7.4 and 5.5 (Experimental Example 8); assay type: cell-based, ICR mice
Protocol: LNP encapsulating mRNA that expresses luciferase (cationic lipid:DOPC:Chol:DMG-PEG2k = 52.5:7.5:40:1.5 (molar ratio)) was prepared by the method described in […], 1. As cationic lipid, the cationic lipid of Comparative Example, compound 94, compound 112, compound 162, compound 181, or compound 194 was used.
The collected blood was immediately mixed with 1.0 µL of heparin solution (5000 U/5 mL). About 9 mL of PBS was added to the blood to make the total volume 10 mL. The mixture was then mixed by inversion and centrifuged (4°C, 400 g, 10 min). The supernatant containing plasma components was removed using a Pasteur pipette. About 9 mL of PBS was added to the blood cell components to make the total volume 10 mL, and the mixture was centrifuged again. A similar washing procedure was repeated 4 times to obtain mouse red blood cells.
2, 4, 6, 8, and 10 µL of mouse red blood cells were weighed and diluted with PBS containing 1 w/v% Triton-X100. The entire diluted solution was transferred to a clear 96-well plate, and the absorbance at 545 nm was measured using a plate reader. A calibration curve was created using these samples, and the point where the absorbance reached 1 was determined as the amount of blood cells to be used in the hemolysis assay. Empty LNP solution was weighed into an Eppendorf tube and diluted with malic acid-PBS buffer (pH 5.5, pH 7.4), followed by addition of mouse red blood cells. The final lipid concentration was 100 µM at pH 7.4 and 33.3 µM at pH 5.5, and the final volume of the solution was 250 µL. Each tube was shaken at 1900 rpm for 15 min. Each sample was centrifuged under centrifugation conditions (4°C, 400 g, 5 min), and 100 µL of the supernatant was transferred to a clear 96-well plate and the absorbance at 545 nm was measured. Untreated red blood cells were used as the negative control. 1 w/v% Triton-X was used as the positive control. The hemolysis activity of each sample was calculated using the following formula: Hemolysis activity (%) = 100×(absorbance of each sample - absorbance of negative control)/(absorbance of positive control - absorbance of negative control).

[3] = Particle size, PdI and zeta potential of mRNA-encapsulating LNPs by dynamic light scattering (Experimental Example 6); assay type: physicochemical; conditions: mRNA-encapsulating LNP; for zeta potential (mV): cationic lipid:DOPC:Chol=49:7.5:42.5:1, dispersion in TBS (Tables 8-1, 8-2); for PdI / particle size (nm): cationic lipid:DOPC:Chol=49:7.5:42.5:1, dispersion in TBS, dynamic light scattering (Tables 8-1, 8-2)
Protocol: An acidic buffer solution (total amount: 1300 µL) of nucleic acid was prepared by weighing 6.5 µg of mRNA solution (0.6 mg/mL) in a 5 mL tube and adding acidic citrate buffer (20 mM, pH 5.0).
An acidic buffer solution of nucleic acid and an ethanol solution of lipid were each weighed in a syringe. […] The obtained concentrate was diluted with TBS to a lipid concentration of 2 mM to give a dispersion containing LNP.
The particle size, PdI (Polydispersity Index), and zeta potential of the mRNA-encapsulating LNP prepared by the method of the above-mentioned 1 were measured by a dynamic light scattering method (Zetasizer Nano; Malvern). […]

liver [4] = assay: In vivo gene expression, luciferase luminescence in the liver after tail vein administration (Experimental Example 7); conditions: BALB/c mouse, mRNA 0.05 mg/kg; for amount of luminescence (photons/sec) in liver: tail vein, 4.5 hr after administration, LNP cationic lipid:DOPC:Chol:DMG-PEG2k = 52.5:7.5:40:1.5, prepared as in Experimental Example 6; for relative amount of luminescence: liver luminescence relative to cationic lipid of Comparative Example
Protocol: LNP encapsulating mRNA that expresses luciferase (cationic lipid:DOPC:Chol:DMG-PEG2k = 52.5:7.5:40:1.5 (molar ratio)) was prepared by the method described in [Experimental Example 6], 1.
as §1, with “9.” for “7-1 to Table 7-3. "E+0a" (a: integer) indicated in Table 7-1 to Table 7-3 means "10^a".”

zeta potential (mV) [2] [mV]	PdI [2]	particle size (nm) [2] [nm]	zeta potential (mV) [3] [mV]	PdI [3]	particle size (nm) [3] [nm]	SMILES	amount of luminescence (photons/sec) in liver (liver [1]; tail vein, 4.5 hr after administration, LNP cationic lipid:DOPC:Chol:DMG-PEG2k = 52.5:7.5:40:1.5, prepared as in Experimental Example 2) [photons/sec]	relative amount of luminescence (liver [1]; liver luminescence relative to cationic lipid of Comparative Example)	hemolysis activity (mouse red blood cells; pH of the endosomal environment (5.5), final lipid concentration 33.3 µM, Fig. 4, versus LNP of Comparative Example)	hemolysis activity (mouse red blood cells; physiological pH (7.4), final lipid concentration 100 µM, Fig. 3)	amount of luminescence (photons/sec) in liver (liver [4]) [photons/sec]	relative amount of luminescence (liver [4])
-2.5	0.047	89.3	-2.99	0.09	130.5	CCCCCCCC/C=C\CCCCCCCC(=O)Oc1ccc(CC(=O)OCCC2CCN(CCSSCCN3CCC(CCOC(=O)Cc4ccc(OC(=O)CCCCCCC/C=C\CC(CCCCCC)OC(=O)C(CC)CCCC)cc4)CC3)CC2)cc1 (centres unmarked) [compound 166]					8.49E+09	4.15
-4.4	0.070	99.5	-4.83	0.035	126.1	CCCCCCC(C/C=C\CCCCCCCC(=O)Oc1ccc(CC(=O)OCCC2CCN(CCSSCCN3CCC(CCOC(=O)Cc4ccc(OC(=O)CCCCCCC/C=C\CC(CCCCCC)OC(=O)c5ccc(OCC)c(OCC)c5)cc4)CC3)CC2)cc1)OC(=O)c1ccc(OCC)c(OCC)c1 (centres unmarked) [compound 173]					9.37E+09	4.57

SMILES	zeta potential (mV) [2] [mV]	PdI [2]	particle size (nm) [2] [nm]	zeta potential (mV) [3] [mV]	PdI [3]	particle size (nm) [3] [nm]	amount of luminescence (photons/sec) in liver (liver [1]; tail vein, 4.5 hr after administration, LNP cationic lipid:DOPC:Chol:DMG-PEG2k = 52.5:7.5:40:1.5, prepared as in Experimental Example 2) [photons/sec]	relative amount of luminescence (liver [1]; liver luminescence relative to cationic lipid of Comparative Example)	hemolysis activity (mouse red blood cells; pH of the endosomal environment (5.5), final lipid concentration 33.3 µM, Fig. 4, versus LNP of Comparative Example)	hemolysis activity (mouse red blood cells; physiological pH (7.4), final lipid concentration 100 µM, Fig. 3)	amount of luminescence (photons/sec) in liver (liver [4]) [photons/sec]	relative amount of luminescence (liver [4])
CCCCCCCC(=O)OC(CC=CCCCCCCCC(=O)Oc1ccc(CC(=O)OCCC2CCN(CCSSCCN3CCC(CCOC(=O)Cc4ccc(OC(=O)CCCCCCCC=CCC(CCCCCC)OC(=O)CCCCC)cc4)CC3)CC2)cc1)CCCCCC (centres unmarked) [compound 162]	-5.04	0.041	91.2	-3.44	0.079	126	4.43E+09	2.85	superior hemolysis activity compared to the LNP containing the cationic lipid of Comparative Example	none		
